ChEMBL document CHEMBL4411322 (J Med Chem, 2019)
Non-standard residues stand in square brackets, D forms with d. Residues, ends and D or L forms follow the SMILES beside them.

Tests used:
Integrin alpha-V/beta-6 = Integrin alpha-V/beta-6 (Homo sapiens, UniProt P06756+P18564); assay: Inhibition of LAP binding to human integrin alphavbeta6 receptor after 1 hr by solid-phase binding assay; assay type: protein-complex assay; conditions: read-out: IC50
Integrin alpha-V/beta-8 = Integrin alpha-V/beta-8 (Homo sapiens, UniProt P06756+P26012); assay: Inhibition of LAP binding to human integrin alphavbeta8 receptor after 1 hr by solid-phase binding assay; assay type: protein-complex assay; conditions: read-out: IC50
Chain of Integrin alpha-V/beta-8 (P06756 31-889 limits assumed): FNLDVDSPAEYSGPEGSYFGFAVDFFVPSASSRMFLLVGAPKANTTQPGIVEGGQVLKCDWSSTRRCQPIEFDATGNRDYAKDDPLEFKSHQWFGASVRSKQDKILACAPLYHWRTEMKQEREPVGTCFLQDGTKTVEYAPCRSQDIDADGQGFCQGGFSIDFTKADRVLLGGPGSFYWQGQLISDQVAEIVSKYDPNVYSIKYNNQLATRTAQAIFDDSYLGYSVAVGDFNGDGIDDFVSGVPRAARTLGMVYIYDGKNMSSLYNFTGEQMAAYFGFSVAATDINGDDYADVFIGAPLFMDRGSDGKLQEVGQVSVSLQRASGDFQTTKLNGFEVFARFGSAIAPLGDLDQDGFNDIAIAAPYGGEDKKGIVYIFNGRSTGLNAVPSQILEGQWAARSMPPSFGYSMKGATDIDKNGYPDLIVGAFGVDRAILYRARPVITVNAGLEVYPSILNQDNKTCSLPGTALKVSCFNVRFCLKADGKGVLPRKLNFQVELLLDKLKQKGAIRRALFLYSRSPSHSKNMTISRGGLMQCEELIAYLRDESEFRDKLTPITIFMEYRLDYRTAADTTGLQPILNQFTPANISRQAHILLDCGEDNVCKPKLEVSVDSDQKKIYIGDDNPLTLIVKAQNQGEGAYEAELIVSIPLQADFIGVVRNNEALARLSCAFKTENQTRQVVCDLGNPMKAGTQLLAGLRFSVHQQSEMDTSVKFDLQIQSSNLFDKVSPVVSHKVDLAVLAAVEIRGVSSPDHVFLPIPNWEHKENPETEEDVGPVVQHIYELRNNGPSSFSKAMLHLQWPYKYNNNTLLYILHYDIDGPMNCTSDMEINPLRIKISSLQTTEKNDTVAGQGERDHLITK
Chain of Integrin alpha-V/beta-8 (P06756 891-1048 limits assumed): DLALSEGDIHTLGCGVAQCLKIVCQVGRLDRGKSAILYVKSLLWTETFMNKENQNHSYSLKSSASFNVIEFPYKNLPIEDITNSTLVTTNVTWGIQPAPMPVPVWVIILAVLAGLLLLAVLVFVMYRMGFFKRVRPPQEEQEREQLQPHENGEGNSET
Chain of Integrin alpha-V/beta-8 (P26012 43-769 limits assumed): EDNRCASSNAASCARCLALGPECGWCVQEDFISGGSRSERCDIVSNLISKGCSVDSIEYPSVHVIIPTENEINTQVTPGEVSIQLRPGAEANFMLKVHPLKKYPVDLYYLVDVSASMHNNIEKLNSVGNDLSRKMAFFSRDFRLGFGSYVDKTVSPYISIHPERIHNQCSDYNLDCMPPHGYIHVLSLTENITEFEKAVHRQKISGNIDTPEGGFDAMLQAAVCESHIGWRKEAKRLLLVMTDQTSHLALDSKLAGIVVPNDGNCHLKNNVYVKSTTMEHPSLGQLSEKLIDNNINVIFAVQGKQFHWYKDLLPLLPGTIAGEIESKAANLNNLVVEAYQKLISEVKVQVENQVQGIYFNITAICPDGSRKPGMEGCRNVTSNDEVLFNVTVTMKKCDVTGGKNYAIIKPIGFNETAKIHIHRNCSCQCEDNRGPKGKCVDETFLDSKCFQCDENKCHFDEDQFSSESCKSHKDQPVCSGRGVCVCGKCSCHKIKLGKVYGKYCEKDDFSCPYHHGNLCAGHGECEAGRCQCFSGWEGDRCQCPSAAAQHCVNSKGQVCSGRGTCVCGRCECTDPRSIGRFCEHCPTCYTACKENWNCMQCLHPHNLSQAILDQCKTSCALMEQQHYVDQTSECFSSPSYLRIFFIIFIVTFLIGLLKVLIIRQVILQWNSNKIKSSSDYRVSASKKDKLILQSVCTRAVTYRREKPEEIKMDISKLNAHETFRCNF

Homo sapiens = species on record: Homo sapiens; assay: Selectivity ratio of IC50 for human integrin alphavbeta6 receptor to IC50 for human integrin alphavbeta8 receptor

Chain of Integrin alpha-V/beta-6 (P06756 31-889 limits assumed): as the sequence (P06756 31-889 limits assumed) above
Chain of Integrin alpha-V/beta-6 (P06756 891-1048 limits assumed): as the sequence (P06756 891-1048 limits assumed) above
Chain of Integrin alpha-V/beta-6 (P18564 22-788 limits assumed): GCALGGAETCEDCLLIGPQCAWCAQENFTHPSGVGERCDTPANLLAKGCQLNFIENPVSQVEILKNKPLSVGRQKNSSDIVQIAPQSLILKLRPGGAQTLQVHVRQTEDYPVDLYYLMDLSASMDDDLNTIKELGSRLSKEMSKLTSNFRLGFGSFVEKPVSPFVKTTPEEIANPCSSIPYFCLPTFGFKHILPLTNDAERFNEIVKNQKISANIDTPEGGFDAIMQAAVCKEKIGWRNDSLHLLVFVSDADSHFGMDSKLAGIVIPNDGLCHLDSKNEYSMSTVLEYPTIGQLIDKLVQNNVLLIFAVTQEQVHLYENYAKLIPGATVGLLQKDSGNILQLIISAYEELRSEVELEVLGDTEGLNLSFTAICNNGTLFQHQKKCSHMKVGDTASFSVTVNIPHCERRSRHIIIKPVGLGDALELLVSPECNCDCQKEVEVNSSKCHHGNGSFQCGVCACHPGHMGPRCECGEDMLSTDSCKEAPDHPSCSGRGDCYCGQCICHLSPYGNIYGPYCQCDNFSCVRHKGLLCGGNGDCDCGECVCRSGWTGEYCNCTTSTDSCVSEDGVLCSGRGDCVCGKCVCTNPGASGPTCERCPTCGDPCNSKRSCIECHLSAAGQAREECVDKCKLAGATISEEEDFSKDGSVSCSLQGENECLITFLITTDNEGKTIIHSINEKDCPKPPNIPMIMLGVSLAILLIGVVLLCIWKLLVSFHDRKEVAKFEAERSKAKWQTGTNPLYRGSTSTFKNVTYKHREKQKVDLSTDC

IC50 (Integrin alpha-V/beta-6) [µM]	IC50 (Integrin alpha-V/beta-8) [µM]	Ratio IC50 (Homo sapiens)	Structure (SMILES)
0.889	0.631	1.4	CC(C)C[C@@H]1NC(=O)[C@@H]2CCCN2C(=O)[C@H]2CCCN2C(=O)[C@H](CC(C)C)NC(=O)[C@H](CC(=O)O)NC(=O)CNC(=O)[C@H](CCCNC(=N)N)NC(=O)[C@H](C)NC(=O)[C@H](C)NC(=O)[C@H](C)NC1=O
0.18	0.034	5.3	CC(C)C[C@@H]1NC(=O)[C@H](C)NC(=O)[C@H](CC(C)C)N(C)C(=O)[C@H]2CCCN2C(=O)[C@H](CC(C)C)NC(=O)[C@H](CC(=O)O)NC(=O)CNC(=O)[C@H](CCCNC(=N)N)NC1=O
0.112	0.0594	1.9	CC(C)C[C@@H]1NC(=O)[C@H](CC(=O)O)NC(=O)CNC(=O)[C@H](CCCNC(=N)N)NC(=O)[C@@H](C)NC(=O)[C@H](C)NC(=O)[C@@H]2CCCN2C(=O)[C@H]2CCCN2C1=O
0.073	0.00373	20.1	CC(C)C[C@@H]1NC(=O)[C@H](CC(=O)O)NC(=O)CNC(=O)[C@H](CCCNC(=N)N)NC(=O)[C@H](Cc2c[nH]c3ccccc23)NC(=O)[C@H](C)NC(=O)[C@@H]2CCCN2C(=O)[C@H]2CCCN2C1=O
0.0318	0.00131	24	CC(C)C[C@@H]1NC(=O)[C@H](C)NC(=O)[C@@H]2CCCN2C(=O)[C@H]2CCCN2C(=O)[C@H](CC(C)C)NC(=O)[C@H](CC(=O)O)NC(=O)CNC(=O)[C@H](CCCNC(=N)N)NC1=O (cyclo(RGDL[dP]PAL))
0.114	0.0081	14.1	CC(C)C[C@@H]1NC(=O)[C@H](CC(=O)O)NC(=O)CNC(=O)[C@H](CCCNC(=N)N)NC(=O)[C@H](C)NC(=O)[C@H](C)NC(=O)[C@@H]2CCCN2C(=O)[C@H]2CCCN2C1=O
0.0296	0.0064	4.6	CC(C)C[C@@H]1NC(=O)[C@H](CC(=O)O)NC(=O)CNC(=O)[C@H](CCCNC(=N)N)NC(=O)[C@H](c2ccccc2)NC(=O)[C@H](C)NC(=O)[C@@H]2CCCN2C(=O)[C@H]2CCCN2C1=O
0.274	0.166	1.7	CC(C)C[C@@H]1NC(=O)[C@H](CC(=O)O)NC(=O)CNC(=O)[C@H](CCCNC(=N)N)NC(=O)[C@H](C)NC(=O)[C@H](C)NC(=O)[C@H](C)NC(=O)[C@H](C)NC(=O)[C@@H]2CCCN2C(=O)[C@H]2CCCN2C1=O
0.062	0.044	1.4	CC(C)C[C@@H]1NC(=O)[C@H](C)NC(=O)[C@H](CCCCN)N(C)C(=O)[C@H]2CCCN2C(=O)[C@H](CC(C)C)NC(=O)[C@H](CC(=O)O)NC(=O)CNC(=O)[C@H](CCCNC(=N)N)NC1=O
0.204	0.0128	16	CCCCCCNC1C[C@H]2C(=O)NCC(=O)N[C@@H](CC(C)C)C(=O)N[C@@H](CCCNC(=N)N)C(=O)NCC(=O)N[C@@H](CC(=O)O)C(=O)N[C@@H](CC(C)C)C(=O)N3CCC[C@@H]3C(=O)N2C1 (some centres not stated)
0.07	0.044	1.6	CC(C)C[C@@H]1NC(=O)[C@H](C)NC(=O)[C@H](C(C)C)N(C)C(=O)[C@H]2CCCN2C(=O)[C@H](CC(C)C)NC(=O)[C@H](CC(=O)O)NC(=O)CNC(=O)[C@H](CCCNC(=N)N)NC1=O
0.72	0.127	5.7	CC(C)C[C@@H]1NC(=O)[C@H](C)NC(=O)[C@H](C)NC(=O)[C@@H]2CCCN2C(=O)[C@H]2CCCN2C(=O)[C@H](CC(C)C)NC(=O)[C@H](CC(=O)O)NC(=O)[C@H]([C@@H](C)O)NC(=O)[C@H](CCCNC(=N)N)NC(=O)[C@H](C)NC1=O
0.039	0.0121	3.2	CC(C)C[C@@H]1NC(=O)[C@H](C)NC(=O)[C@@H]2CCCN2C(=O)[C@@H](CCCCN)N(C)C(=O)[C@H](CC(C)C)NC(=O)[C@H](CC(=O)O)NC(=O)CNC(=O)[C@H](CCCNC(=N)N)NC1=O
0.0759	0.0063	12	CC(C)C[C@@H]1NC(=O)[C@H](CC(=O)O)NC(=O)CNC(=O)[C@H](CCCNC(=N)N)NC(=O)[C@H](CC(=O)O)NC(=O)[C@H](C)NC(=O)[C@@H]2CCCN2C(=O)[C@H]2CCCN2C1=O
